{
  "source": "ChEMBL document CHEMBL4619763",
  "about": "(J Nat Prod, 2020)",
  "key": {"Rattus norvegicus [1]": {"system": "Rattus norvegicus", "experiment": "Diuretic activity in normotensive Wistar rat assessed as urine conductivity at 1 mg/kg, ip after 8 hrs (reference value: 24.87 +/- 0.54 mS/cm)", "type": "functional"}, "[2]": {"experiment": "Anti-urolithic activity in synthetic urine assessed as decrease in absorbance at 0.1 mg/mL after 60 mins relative to control", "type": "functional", "set-up": "scale not given: the % may be the effect or the level left"}, "Rattus norvegicus [3]": {"system": "Rattus norvegicus", "experiment": "Diuretic activity in normotensive Wistar rat assessed as urinary potassium excretion at 0.1 mg/kg, po administered via gavage after 8 hrs (reference value: 22.39 to 24.21 mmol/L)", "type": "ADME, organism-based", "settings": "in vivo"}, "Rattus norvegicus [4]": {"system": "Rattus norvegicus", "experiment": "Diuretic activity in normotensive Wistar rat assessed as increase in urine volume excretion at 0.1 to 1 mg/kg, po administered via gavage after 1 hr", "type": "functional, organism-based"}, "Rattus norvegicus [5]": {"system": "Rattus norvegicus", "experiment": "Diuretic activity in normotensive Wistar rat assessed as increase in urine volume excretion at 1 mg/kg, ip a after 6 hr", "type": "functional, organism-based"}, "Rattus norvegicus [6]": {"system": "Rattus norvegicus", "experiment": "Diuretic activity in normotensive Wistar rat assessed as urine conductivity at 0.1 mg/kg, po administered via gavage after 8 hrs in presence of furosemide (reference value: 19.54 +/- 0.98 mS/cm)", "type": "functional"}, "Rattus norvegicus [7]": {"system": "Rattus norvegicus", "experiment": "Diuretic activity in normotensive Wistar rat assessed as urinary calcium excretion at 0.1 mg/kg, po administered via gavage after 8 hrs in presence of indomethacin (reference value: 5.93 to 6.87 mg/dl)", "type": "functional"}, "[8]": {"experiment": "Antioxidant activity assessed as DPPH radical scavenging activity at 100 to 1000 ug/ml after 5 mins", "type": "functional"}, "Rattus norvegicus [9]": {"system": "Rattus norvegicus", "experiment": "Diuretic activity in normotensive Wistar rat assessed as urinary calcium excretion at 0.1 mg/kg, po administered via gavage after 8 hrs in presence of atropine (reference value: 5.93 to 6.87 mg/dl)", "type": "functional"}, "Rattus norvegicus [10]": {"system": "Rattus norvegicus", "experiment": "Diuretic activity in normotensive Wistar rat assessed as urinary calcium excretion at 1 mg/kg, po administered via gavage after 8 hrs (reference value: 5.93 to 6.87 mg/dl)", "type": "functional"}, "[11]": {"experiment": "Toxicity in spontaneous hypertensive Wistar rat assessed as changes in urea level in urine at 0.1 mg/kg, po administered for 7 days", "type": "organism-based", "settings": "in vivo, 168 h"}, "[12]": {"experiment": "Toxicity in spontaneous hypertensive Wistar rat assessed as changes in plasma chloride level at 0.1 mg/kg, po administered for 7 days", "type": "organism-based", "settings": "in vivo, 168 h"}, "Rattus norvegicus [13]": {"system": "Rattus norvegicus", "experiment": "Diuretic activity in normotensive Wistar rat assessed as urinary potassium excretion at 0.1 mg/kg, po administered via gavage after 8 hrs in presence of L-NAME (reference value: 22.39 to 24.21 mmol/L)", "type": "ADME, organism-based", "settings": "in vivo"}, "[14]": {"experiment": "Toxicity in spontaneous hypertensive Wistar rat assessed as changes in plasma calcium level at 0.1 mg/kg, po administered for 7 days", "type": "organism-based", "settings": "in vivo, 168 h"}, "Rattus norvegicus [15]": {"system": "Rattus norvegicus", "experiment": "Diuretic activity in normotensive Wistar rat assessed as urine conductivity at 1 mg/kg, po administered via gavage after 8 hrs (reference value: 19.54 +/- 0.98 mS/cm)", "type": "functional"}, "Rattus norvegicus [16]": {"system": "Rattus norvegicus", "experiment": "Diuretic activity in normotensive Wistar rat assessed as urine conductivity at 0.1 mg/kg, po administered via gavage after 8 hrs in presence of L-NAME (reference value: 19.54 +/- 0.98 mS/cm)", "type": "functional"}, "[17]": {"experiment": "Toxicity in normotensive Wistar rat assessed as changes in plasma calcium level at 0.1 mg/kg, po administered for 7 days", "type": "organism-based", "settings": "in vivo, 168 h"}, "[18]": {"experiment": "Anti-urolithic activity in synthetic urine assessed as reduction in CaOx crystal formation at 0.01 mg/mL in presence of sodium oxalate after 60 mins by Neubauer counting chamber method relative to control", "type": "functional", "set-up": "scale not given: the % may be the effect or the level left"}, "Rattus norvegicus [19]": {"system": "Rattus norvegicus", "experiment": "Diuretic activity in normotensive Wistar rat assessed as urine conductivity at 0.1 mg/kg, po administered via gavage after 8 hrs (reference value: 19.54 +/- 0.98 mS/cm)", "type": "functional"}, "Rattus norvegicus [20]": {"system": "Rattus norvegicus", "experiment": "Diuretic activity in normotensive Wistar rat assessed as urine conductivity at 0.1 mg/kg, ip after 8 hrs (reference value: 24.87 +/- 0.54 mS/cm)", "type": "functional"}, "Rattus norvegicus [21]": {"system": "Rattus norvegicus", "experiment": "Cardioprotective activity in spontaneous hypertensive Wistar rat assessed as effect on heart weight at 0.1 mg/kg, po administered for 7 days", "type": "functional, organism-based"}, "Rattus norvegicus [22]": {"system": "Rattus norvegicus", "experiment": "Diuretic activity in spontaneous hypertensive Wistar rat assessed as decrease in urinary calcium excretion at 0.1 mg/kg, po administered via gavage for 7 days", "type": "functional, organism-based"}, "Rattus norvegicus [23]": {"system": "Rattus norvegicus", "experiment": "Diuretic activity in spontaneous hypertensive Wistar rat assessed as increase in urine volume at 0.1 mg/kg, po administered via gavage for 7 days", "type": "functional, organism-based"}, "Rattus norvegicus [24]": {"system": "Rattus norvegicus", "experiment": "Diuretic activity in normotensive Wistar rat assessed as urine pH at 0.01 mg/kg, ip after 8 hrs (reference value: 6.05 +/- 0.22)", "type": "functional"}, "Rattus norvegicus [25]": {"system": "Rattus norvegicus", "experiment": "Diuretic activity in normotensive Wistar rat assessed as urinary potassium excretion at 0.1 mg/kg, ip […] after 8 hrs (reference value: 22.33 +/- 2.81 mmol/L)", "type": "ADME, organism-based", "settings": "in vivo"}, "Rattus norvegicus [26]": {"system": "Rattus norvegicus", "experiment": "Diuretic activity in normotensive Wistar rat assessed as increase in urinary chloride excretion at 0.1 mg/kg, po administered via gavage for 7 days", "type": "functional, organism-based"}, "Rattus norvegicus [27]": {"system": "Rattus norvegicus", "experiment": "Anti-urolithic activity in spontaneous hypertensive Wistar rats assessed as reduction in CaOx crystal formation in cumulative urine at 0.1 mg/kg, po administered via gavage in presence of sodium oxalate by Neubauer counting chamber method relative to control", "type": "functional", "set-up": "scale not given: the % may be the effect or the level left"}, "Rattus norvegicus [28]": {"system": "Rattus norvegicus", "experiment": "Diuretic activity in normotensive Wistar rat assessed as urine conductivity at 0.1 mg/kg, po administered via gavage after 8 hrs in presence of amiloride (reference value: 19.54 +/- 0.98 mS/cm)", "type": "functional"}, "[29]": {"experiment": "Toxicity in normotensive Wistar rat assessed as changes in plasma ALT level at 0.1 mg/kg, po administered for 7 days", "type": "organism-based", "settings": "in vivo, 168 h"}, "Rattus norvegicus [30]": {"system": "Rattus norvegicus", "experiment": "Diuretic activity in normotensive Wistar rat assessed as urinary chloride excretion at 0.01 mg/kg, ip […] after 8 hrs (reference value: 103.30 +/- 10.25 mmol/L)", "type": "functional"}, "Rattus norvegicus [31]": {"system": "Rattus norvegicus", "experiment": "Diuretic activity in normotensive Wistar rat assessed as urinary calcium excretion at 0.01 mg/kg, po administered via gavage after 8 hrs (reference value: 5.93 to 6.87 mg/dl)", "type": "functional"}, "Rattus norvegicus [32]": {"system": "Rattus norvegicus", "experiment": "Diuretic activity in normotensive Wistar rat assessed as urine pH at 0.1 mg/kg, ip after 8 hrs (reference value: 6.05 +/- 0.22)", "type": "functional"}, "Rattus norvegicus [33]": {"system": "Rattus norvegicus", "experiment": "Diuretic activity in normotensive Wistar rat assessed as urinary sodium excretion at 0.1 mg/kg, po administered via gavage after 8 hrs in presence of furosemide (reference value: 61.82 to 80.81 mmol/L)", "type": "functional"}, "Rattus norvegicus [34]": {"system": "Rattus norvegicus", "experiment": "Diuretic activity in normotensive Wistar rat assessed as urinary potassium excretion at 0.01 mg/kg, ip […] after 8 hrs (reference value: 22.33 +/- 2.81 mmol/L)", "type": "ADME, organism-based", "settings": "in vivo"}, "Rattus norvegicus [35]": {"system": "Rattus norvegicus", "experiment": "Diuretic activity in normotensive Wistar rat assessed as urinary calcium excretion at 1 mg/kg, ip […] after 8 hrs (reference value: 5.28 +/- 0.09 mg/dl)", "type": "functional"}, "Rattus norvegicus [36]": {"system": "Rattus norvegicus", "experiment": "Diuretic activity in normotensive Wistar rat assessed as urinary chloride excretion at 0.1 mg/kg, po administered via gavage after 8 hrs in presence of hydrochlorothiazide (reference value: 135.10 to 143.70 mmol/L)", "type": "functional"}},
  "note": "Calls of active or inactive are those of the source. No cut-off for these calls is given here.",
  "data": [
    {"smiles": "C[C@@H]1O[C@@H](Oc2c(-c3ccc(O)cc3)oc3cc(O)cc(O)c3c2=O)[C@H](O)[C@H](O)[C@H]1O", "note": "[AFZELIN]", "values": [
      {"measurement": "Activity", "setting": "Rattus norvegicus [1]", "result": 24.92, "unit": "mS/cm"},
      {"measurement": "Activity", "setting": "[2]", "result": 27.21, "unit": "%"},
      {"measurement": "Activity", "setting": "Rattus norvegicus [3]", "result": "24.2 to 24.7", "unit": "mmol/L"},
      {"measurement": "Activity", "setting": "Rattus norvegicus [4]", "result": "Active"},
      {"measurement": "Activity", "setting": "Rattus norvegicus [5]", "result": "Active"},
      {"measurement": "Activity", "setting": "Rattus norvegicus [6]", "result": 20.62, "unit": "mS/cm"},
      {"measurement": "Activity", "setting": "Rattus norvegicus [7]", "result": 4.82, "unit": "mg/dL"},
      {"measurement": "Activity", "setting": "[8]", "result": "Active"},
      {"measurement": "Activity", "setting": "Rattus norvegicus [9]", "result": 4.69, "unit": "mg/dL"},
      {"measurement": "Activity", "setting": "Rattus norvegicus [10]", "result": 6.08, "unit": "mg/dL"},
      {"measurement": "Activity", "setting": "[11]", "result": "Non-Toxic"},
      {"measurement": "Activity", "setting": "[12]", "result": "Non-Toxic"},
      {"measurement": "Activity", "setting": "Rattus norvegicus [13]", "result": 14.84, "unit": "mmol/L"},
      {"measurement": "Activity", "setting": "[14]", "result": "Non-Toxic"},
      {"measurement": "Activity", "setting": "Rattus norvegicus [15]", "result": 17.48, "unit": "mS/cm"},
      {"measurement": "Activity", "setting": "Rattus norvegicus [16]", "result": 15.97, "unit": "mS/cm"},
      {"measurement": "Activity", "setting": "[17]", "result": "Non-Toxic"},
      {"measurement": "Activity", "setting": "[18]", "result": 57.47, "unit": "%"},
      {"measurement": "Activity", "setting": "Rattus norvegicus [19]", "result": "17.05 - 18.31 mS/cm"},
      {"measurement": "Activity", "setting": "Rattus norvegicus [20]", "result": 24.35, "unit": "mS/cm"},
      {"measurement": "Activity", "setting": "Rattus norvegicus [21]", "result": "inactive"},
      {"measurement": "Activity", "setting": "Rattus norvegicus [22]", "result": "Active"},
      {"measurement": "Activity", "setting": "Rattus norvegicus [23]", "result": "Active"},
      {"measurement": "pH", "setting": "Rattus norvegicus [24]", "result": 5.82},
      {"measurement": "Activity", "setting": "Rattus norvegicus [25]", "result": 12.79, "unit": "mmol/L"},
      {"measurement": "Activity", "setting": "Rattus norvegicus [26]", "result": "Active"},
      {"measurement": "Activity", "setting": "Rattus norvegicus [27]", "result": 92.53, "unit": "%"},
      {"measurement": "Activity", "setting": "Rattus norvegicus [28]", "result": 15.25, "unit": "mS/cm"},
      {"measurement": "Activity", "setting": "[29]", "result": "Non-Toxic"},
      {"measurement": "Activity", "setting": "Rattus norvegicus [30]", "result": 96.18, "unit": "mmol/L"},
      {"measurement": "Activity", "setting": "Rattus norvegicus [31]", "result": 5.23, "unit": "mg/dL"},
      {"measurement": "pH", "setting": "Rattus norvegicus [32]", "result": 5.89},
      {"measurement": "Activity", "setting": "Rattus norvegicus [33]", "result": 75.54, "unit": "mmol/L"},
      {"measurement": "Activity", "setting": "Rattus norvegicus [34]", "result": 15.61, "unit": "mmol/L"},
      {"measurement": "Activity", "setting": "Rattus norvegicus [35]", "result": 5.46, "unit": "mg/dL"},
      {"measurement": "Activity", "setting": "Rattus norvegicus [36]", "result": 333.4, "unit": "mmol/L"}
    ]}
  ]
}
